Values joined by “and” are separate entries in the source; they are usually repeats but may differ in a detail not shown here. Equal values may be shown once.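 In this assay, cells in 96-well plates receive the compound at five concentrations for 48 hours. Endpoints are linearly interpolated between the surrounding concentrations. At the GI50, growth is halved.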 Active and inactive are the calls of the source. Rule as the data show it: active = GI50 up to about 1.1 µM and inactive = higher.
Experiments:
Test in all cases: inhibition of tumour cell growth, NCI panel, 48 h
HOP-62 = test system: HOP-62
MDA-MB-435 = test system: MDA-MB-435
K562 = test system: K562
HOP-92 = test system: HOP-92
SK-MEL-5 = test system: SK-MEL-5
SNB-75 = test system: SNB-75
RPMI-8226 = test system: RPMI-8226
MDA-N = test system: MDA-N
CCRF-CEM = test system: CCRF-CEM
HL-60 = test system: HL-60
COLO 205 = test system: COLO 205
MCF7 = test system: MCF7
UACC-257 = test system: UACC-257
SF-268 = test system: SF-268
NCI-H23 = test system: NCI-H23
SK-OV-3 = test system: SK-OV-3
UACC-62 = test system: UACC-62
KM12 = test system: KM12
Malme-3M = test system: Malme-3M
LOX IMVI = test system: LOX IMVI

Measured: GI50

CC(C)(C)c1ccc2c(c1)OCc1n[nH]c(n1)COc1cc(C(C)(C)C)ccc1OCCOCCO2
inactive: HOP-62 5.62 µM | MDA-MB-435 3.21 µM | K562 4.27 µM | HOP-92 3.88 µM | SK-MEL-5 2.38 µM | SNB-75 5.27 µM | RPMI-8226 2.99 µM | MDA-N 3.11 µM | CCRF-CEM 5.31 µM | HL-60 4.35 µM | COLO 205 2.31 µM | MCF7 3.31 µM | UACC-257 2.65 µM | SF-268 4.37 µM | NCI-H23 3.09 µM | SK-OV-3 3.77 µM | UACC-62 2.88 µM | KM12 3.85 µM | Malme-3M 2.07 µM

CSc1c(C(=O)Nc2ccc(C)cc2)c(N)nn1-c1ccccc1
inactive: HOP-62 57.7 µM | MDA-MB-435 > 100 µM | LOX IMVI > 100 µM | K562 > 100 µM | HOP-92 23.6 µM | SK-MEL-5 > 100 µM | RPMI-8226 > 100 µM | MDA-N > 100 µM | CCRF-CEM > 100 µM | HL-60 > 100 µM | COLO 205 > 100 µM | MCF7 > 100 µM | UACC-257 54 µM | SF-268 46 µM | NCI-H23 > 100 µM | SK-OV-3 64.6 µM | UACC-62 95.9 µM | Malme-3M 19.9 µM

CN(O)C(=O)c1ccc(OCc2cccc(Cl)c2)cc1
inactive: HOP-62 16.7 µM | MDA-MB-435 23.6 µM | LOX IMVI 7.94 µM | K562 22.6 µM | HOP-92 58.5 µM | SK-MEL-5 27.8 µM | SNB-75 47.1 µM | RPMI-8226 14.8 µM | MDA-N 35.8 µM | CCRF-CEM 5.12 µM | HL-60 6.12 µM | COLO 205 23.6 µM | MCF7 32.4 µM | UACC-257 38.2 µM | SF-268 21.2 µM | NCI-H23 11.4 µM | SK-OV-3 24.3 µM | UACC-62 15.4 µM | KM12 27.5 µM

CC(=O)N1C(OC(C)C)CC(C)N1c1ccccc1 (stereo not given)
inactive: HOP-62 > 10 µM | MDA-MB-435 > 10 µM | LOX IMVI > 10 µM | K562 > 10 µM | HOP-92 > 10 µM | SK-MEL-5 > 10 µM | SNB-75 > 10 µM | RPMI-8226 > 10 µM | MDA-N > 10 µM | CCRF-CEM > 10 µM | HL-60 > 10 µM | COLO 205 > 10 µM | MCF7 > 10 µM | UACC-257 > 10 µM | SF-268 > 10 µM | NCI-H23 > 10 µM | Malme-3M > 10 µM

COc1cc([C@H]2OC[C@H]3[C@@H]2CO[C@@H]3c2cc(OC)c3c(c2)OCO3)cc(OC)c1OC
inactive: HOP-62 55.6 µM | MDA-MB-435 76 µM | LOX IMVI 70.6 µM and 96.8 µM | K562 39.4 µM and 73.3 µM | HOP-92 46.9 µM and 60.7 µM | SK-MEL-5 19.2 µM and 18.6 µM | SNB-75 46.6 µM and 84.5 µM | RPMI-8226 28 µM and 35 µM | MDA-N 65.2 µM | CCRF-CEM 45.9 µM and > 10 µM | HL-60 40 µM and > 10 µM | COLO 205 48.3 µM and 42.5 µM | MCF7 60.5 µM and 50.5 µM | UACC-257 79.4 µM and 50.2 µM | SF-268 68.2 µM and 59.2 µM | NCI-H23 37.4 µM and 63 µM | SK-OV-3 > 100 µM | UACC-62 39.9 µM and 67.3 µM | KM12 50.5 µM and 95.1 µM

CCOC(=O)[C@@]12C[C@](/C=C/OC)(O[Si](C)(C)C)[C@@]13c1cc(OC)c(OC)cc1CCN3C(=O)C2=O
inactive: HOP-62 > 100 µM | MDA-MB-435 > 100 µM | LOX IMVI > 100 µM | K562 > 100 µM | HOP-92 > 100 µM | SK-MEL-5 > 100 µM | SNB-75 > 100 µM | RPMI-8226 > 100 µM | MDA-N > 100 µM | CCRF-CEM > 100 µM | COLO 205 > 100 µM | MCF7 > 100 µM | UACC-257 > 100 µM | SF-268 > 100 µM | NCI-H23 > 100 µM | SK-OV-3 > 100 µM | UACC-62 > 100 µM | KM12 > 100 µM | Malme-3M > 100 µM

CC(=O)OCC1OC(N2C(C)=C(C(C)=O)C(c3ccc(Cl)cc3)C(C#N)=C2S)C(OC(C)=O)C(OC(C)=O)C1OC(C)=O (stereo not given)
inactive: HOP-62 > 100 µM | MDA-MB-435 36.8 µM | LOX IMVI 76.2 µM | K562 31.1 µM | HOP-92 33.6 µM | SK-MEL-5 32.3 µM | SNB-75 27.9 µM | RPMI-8226 37.9 µM | MDA-N 42.5 µM | CCRF-CEM 44.1 µM | HL-60 37.3 µM | COLO 205 19.4 µM | MCF7 47 µM | UACC-257 48.8 µM | SF-268 65.8 µM | NCI-H23 > 10 µM | UACC-62 19.9 µM | KM12 79.8 µM | Malme-3M 48.4 µM

From ChEMBL document CHEMBL1201862, “PubChem BioAssay data set” (2004)
